Reference: patent publication US7115658B2 (priority 2002, dated 2006)

Biological target: T1, Recombinant HCV polymerase (Hepatitis C virus genotype 1b, UniProt P26663)
T1 construct: 2.5 pmoles (0.15 μg) HCV polymerase protein
Test: HCV Polymerase Inhibition Assay
Format: biochemical
Settings: primer/template-directed transcription, 30 minutes at 30° C.; category symbol
Procedure: The above-described compounds were tested for activity with HCV polymerase. Recombinant HCV polymerase was tested for its ability to perform primer/template-directed transcription in assays that contained 30 mM tris-HCl pH 7.2, 10 mM MgCl2, 20 mM NaCl, 1 mM Dithiothreitol (DTT), 0.05% Tween-20, 1% glycerol, 5 pmoles biotin-dG12 (primer), 0.5 pmoles poly(rC)300 (template), 1 μM GTP, 0.1–0.3 uCi α-^32P-GTP, and 2.5 pmoles (0.15 μg) HCV polymerase protein in a final volume of 75 μL. Reactions were initiated by addition of enzyme and incubated 30 minutes at 30° C. Reactions were stopped by addition of 33 mM EDTA, and polynucleotide products were collected by filtration through Diethylaminoethyl (DE) Filtermat papers (Wallac). Unincorporated triphosphate was removed by washing the filters with 5% dibasic sodium phosphate. The filters were counted in a Packard Tri-Lux Microbeta scintillation counter (Packard Bioscience, Meriden, Conn.). Compounds to be tested were added at various concentrations, e.g., 1 μm to 50 μm, from stocks in 10% DMSO-water (final DMSO is 1% in reaction).
IC50 values were estimated from the primary cpm data (collected in triplicate) using the formula: cpm (I)=cpm (no inhibitor)(1−([I]/([I]+IC50))). An IC50 value represents the concentration (in μM) of a compound that provides 50% inhibition of polymerase-directed transcription in the above assay. A percent inhibition value is expressed for a compound where it was impractical to calculate an IC50 value with available data. If the IC50 estimated by the above equation was less than 200 nM, it was recalculated using the following equation, which takes into account the enzyme concentration (30 nM) in the assay: cpm(I)=cpm(no inhibitor)(1−((((I+IC50+30e−9)−sqrt(((I+IC50+30e−9)^2)−4×30e−9×I)))/((2) (30e−9))). Curve fitting was performed using the program KaleidaGraph (Synergy Software, Reading, Pa.).

T1 sequence (P26663 2420-3010): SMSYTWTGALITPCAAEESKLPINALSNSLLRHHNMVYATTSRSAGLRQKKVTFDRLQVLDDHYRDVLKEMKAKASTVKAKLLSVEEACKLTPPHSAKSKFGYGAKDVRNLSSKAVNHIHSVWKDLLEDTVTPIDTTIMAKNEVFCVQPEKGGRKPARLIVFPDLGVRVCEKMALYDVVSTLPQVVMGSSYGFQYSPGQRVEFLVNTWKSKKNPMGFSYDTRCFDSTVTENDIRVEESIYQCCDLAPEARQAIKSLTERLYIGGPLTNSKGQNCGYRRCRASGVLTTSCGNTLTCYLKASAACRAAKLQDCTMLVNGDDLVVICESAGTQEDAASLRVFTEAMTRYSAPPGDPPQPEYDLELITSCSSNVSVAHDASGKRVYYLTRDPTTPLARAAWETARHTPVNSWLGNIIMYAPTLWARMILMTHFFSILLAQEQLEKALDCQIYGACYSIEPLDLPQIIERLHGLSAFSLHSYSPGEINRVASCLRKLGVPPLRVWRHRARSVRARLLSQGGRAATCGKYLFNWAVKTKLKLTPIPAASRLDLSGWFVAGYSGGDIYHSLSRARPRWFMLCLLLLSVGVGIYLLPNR

Q: How did the IC50 turn out when O=C1C=C(O)CC(CCc2ccc(OCc3ccc(C(F)(F)F)nc3)cc2)(C2CCCC2)O1 (centres unmarked) [Example 52, 6-Cyclopentyl-6-[2-(4-{[6-(trifluoromethyl)pyridin-3-yl]methoxy}phenyl)ethyl]4-hydroxy-5,6-dihydro-2H-pyran-2-one] was run?
A: 10 to 50 µM

Q: Which IC50 does the source give for O=C1OC(CCc2ccc(O)cc2)(C2CCCC2)CC(O)=C1Sc1ccc2ccccc2c1 (centres unmarked) [Example 83] here?
A: 1 to 10 µM

Q: How did the IC50 turn out when CC(=O)c1ccc(CCC2(C3CCCC3)CC(=O)CC(=O)O2)cc1Cl (centres unmarked) [Example 61, 6-[2-(4-Acetyl-3-chloro-phenyl)-ethyl]-6-cyclopentyl-dihydro-pyran-2,4-dione] was run?
A: 1 to 10 µM

Q: Cn1c(COc2ccc(CCC3(C4CCCC4)CC(O)=CC(=O)O3)cc2)nc2ccccc21 (centres unmarked) [Example 50, 6-Cyclopentyl-6-(2-{4-[(1-methyl-1H-benzimidazol-2-yl)methoxy]phenyl}ethyl)-4-hydroxy-5,6-dihydro-2H-pyran-2-one] was tested. Which IC50 did it give?
A: 10 to 50 µM

Q: For COc1cc(OC)c(CCC2(C3CCCC3)CC(O)=C(Sc3nc4ccc(C(=O)O)cc4[nH]3)C(=O)O2)cc1Cl (centres unmarked) [Example 99, 2-({6-[2-(5-chloro-2,4-dimethoxyphenyl)ethyl]-6-cyclopentyl-4-hydroxy-2-oxo-5,6-dihydro-2H-pyran-3-yl}thio)-1H-benzimidazole-5-carboxylic acid], which IC50 is on record?
A: < 1 µM

Q: How did the IC50 turn out when Cc1cc(SC2=C(O)CC(CCc3ccc(O)cc3)(c3ccccc3)OC2=O)c(C(C)(C)C)cc1CO (centres unmarked) [Example 154, 3-(2-tert-butyl-4-hydroxymethyl-5-methyl-phenylsulfanyl)-4-hydroxy-6-[2-(4-hydroxy-phenyl)-ethyl]-6-phenyl-5,6-dihydro-pyran-2-one] was run?
A: > 50 µM

Q: Which IC50 does the source give for O=C1C=C(O)CC(CC2CCc3ccccc32)(C2CCCC2)O1 (mixture of isomers) [Example 15, 6-Cyclopentyl-4-hydroxy-6-indan-1-ylmethyl-5,6-dihydro-pyran-2-one] here?
A: > 50 µM

Q: For O=C1CC(=O)OC(CCc2ccc3c(c2)OCO3)(C2CCCC2)C1 (centres unmarked) [Example 23, 6-(2-Benzo[1,3]dioxol-5-yl-ethyl)-6-cyclopentyl-dihydro-pyran-2,4-dione], which IC50 is on record?
A: 10 to 50 µM

Q: Which IC50 does the source give for CC(C)(C)c1cccc(CCC2(C3CCCC3)CC(=O)CC(=O)O2)c1 (centres unmarked) [Example 11, 6-[2-(3-tert-butyl-phenyl)-ethyl]-6-cyclopentyl-dihydro-pyran-2,4-dione] here?
A: 1 to 10 µM

Q: CCn1nnnc1SC1=C(O)CC(CCc2ccc(OC)cc2)(C2CCCC2)OC1=O (centres unmarked) [Example 121, 6-Cyclopentyl-3-[(1-ethyl-1H-tetraazol-5-yl)thio]-4-hydroxy-6-[2-(4-methoxyphenyl)ethyl]-5,6-dihydro-2H-pyran-2-one] was tested. Which IC50 did it give?
A: < 1 µM

Q: For COc1cc(OC)c(CCC2(C3CCCC3)CC(O)=C(Sc3ncc(CO)n3C)C(=O)O2)cc1Cl (centres unmarked) [Example 98, 6-[2-(5-chloro-2,4-dimethoxyphenyl)ethyl]-6-cyclopentyl-4-hydroxy-3-([5-(hydroxymethyl)-1-methyl-1H-imidazol-2-yl]thio)-5,6-dihydro-2H-pyran-2-one], which IC50 is on record?
A: < 1 µM

Q: For COc1cc(OC)c(CCC2(C3CCCC3)CC(O)=C(Sc3nccs3)C(=O)O2)cc1Cl (centres unmarked) [Example 109, 6-[2-(5-Chloro-2,4-dimethoxyphenyl)ethyl]-6-cyclopentyl-4-hydroxy-3-(1,3-thiazol-2-ylthio)-5,6-dihydro-2H-pyran-2-one], which IC50 is on record?
A: < 1 µM

Q: With CC(C)c1cccc(CCC2(C3CCCC3)CC(=O)CC(=O)O2)c1 (centres unmarked) [Example 9, 6-Cyclopentyl-6-[2-(3-isopropyl-phenyl)-ethyl]-dihydro-pyran-2,4-dione] as the compound, how does the IC50 read?
A: 1 to 10 µM

Q: For CC(=O)c1ccc(CCC2(C3CCCC3)CC(O)=CC(=O)O2)cc1C (centres unmarked) [Example 17, 6-[2-(4-Acetyl-3-methyl-phenyl)-ethyl]-6cyclopentyl-4-hydroxy-5,6-dihydro-pyran-2-one], which IC50 is on record?
A: 1 to 10 µM

Q: With CC(C)(C#N)c1cccc(CCC2(C3CCCC3)CC(=O)CC(=O)O2)c1 (centres unmarked) [Example 13, 2-{3-[2-(2-Cyclopentyl-4,6-dioxo-tetrahydro-pyran-2-yl)-ethyl]-phenyl}-2-methyl-propionitrile] as the compound, how does the IC50 read?
A: 1 to 10 µM

Q: For CCOC(=O)c1cnc(SC2=C(O)CC(CCc3cc(Cl)c(OC)cc3OC)(C3CCCC3)OC2=O)[nH]1 (centres unmarked) [Example 100, Ethyl 2-({6-[2-(5-chloro-2,4-dimethoxyphenyl)ethyl]-6-cyclopentyl-4-hydroxy-2-oxo-5,6-dihydro-2H-pyran-3-yl}thio)-1H-imidazol-4-carboxylate], which IC50 is on record?
A: < 1 µM

Q: O=C1CC(=O)OC(CCc2ccc(OC3CCC3)c(F)c2)(C2CCCC2)C1 (centres unmarked) [Example 56, 6-[2-(4-Cyclobutoxy-3-fluoro-phenyl)-ethyl]-6-cyclopentyl-dihydro-pyran-2,4-dione] was tested. Which IC50 did it give?
A: 1 to 10 µM

Q: How did the IC50 turn out when O=C1CC(=O)OC(CCc2nccs2)(C2CCCC2)C1 (centres unmarked) [Example 12, 6-Cyclopentyl-6-(2-thiazol-2-yl-ethyl)-dihydro-pyran-2,4-dione] was run?
A: > 50 µM

Q: Which IC50 does the source give for CCCc1ccc(CCC2(C3CCCC3)CC(=O)CC(=O)O2)cc1 (centres unmarked) [Example 55] here?
A: 1 to 10 µM

Q: For COc1ccc(CCC2(C3CCCC3)CC(=O)CC(=O)O2)cc1C (centres unmarked) [Example 29, 6-Cyclopentyl-6-[2-(4-methoxy-3-methyl-phenyl)-ethyl]-dihydro-pyran-2,4-dione], which IC50 is on record?
A: 1 to 10 µM

Q: With COc1cc(OC)c(CCC2(C3CCCC3)CC(O)=C(Sc3nnc(O)n3C)C(=O)O2)cc1Cl (centres unmarked) [Example 95, 6-[2(5-chloro-2,4-dimethoxyphenyl)ethyl]-6-cyclopentyl-4-hydroxy-3-[(5-hydroxy-4-methyl-4H-1,2,4-triazol-3-yl)thio]-5,6-dihydro-2H-pyran-2-one] as the compound, how does the IC50 read?
A: < 1 µM

Q: Which IC50 does the source give for CC1(c2ccc(CCC3(C4CCCC4)CC(=O)CC(=O)O3)cc2Cl)OCCO1 (centres unmarked) [Example 62, 6-{2-[3-Chloro-4-(2-methyl-[1,3]dioxolan-2-yl)-phenyl]-ethyl}-6-cyclopentyl-dihydro-pyran-2,4-dione] here?
A: < 1 µM

Q: How did the IC50 turn out when COc1ccc(OCC2(C3CCCC3)CC(=O)CC(=O)O2)cc1 (centres unmarked) [Example 58, 6-Cyclopentyl-6-(4-methoxy-phenoxymethyl)-dihydro-pyran-2,4-dione] was run?
A: > 50 µM

Q: With COC(=O)c1ccc(CCC2(C3CCCC3)CC(=O)CC(=O)O2)cc1 (centres unmarked) [Example 65, 4-[2-(2-Cyclopentyl-4,6-dioxo-tetrahydro-pyran-2-yl)-ethyl]-benzoic acid methyl ester] as the compound, how does the IC50 read?
A: 1 to 10 µM

Q: How did the IC50 turn out when COc1ccc(CCC2(C3CCCC3)CC(O)=C(Sc3nc4nc(C)cc(C)n4n3)C(=O)O2)cc1Cl (centres unmarked) [Example 101, 6-[2-(3-Chloro-4-methoxy-phenyl)-ethyl]-6-cyclopentyl-3-(5,7-dimethyl-[1,2,4]triazolo[1,5-a]pyrimidin-2-ylsulfanyl)-4-hydroxy-5,6-dihydro-pyran-2-one] was run?
A: < 1 µM

Q: Cc1cc(SC2=C(O)C[C@@](CCc3cccc(O)c3)(C3CCCC3)OC2=O)c(C(C)(C)C)cc1CO [Example 152, (S)-3-(2-tert-butyl-4-hydroxymethyl-5-methyl-phenylsulfanyl)-6-cyclopentyl-4-hydroxy-6-[2-(3-hydroxy-phenyl)-ethyl]-5,6-dihydro-pyran-2-one] was tested. Which IC50 did it give?
A: 1 to 10 µM

Q: For COc1cc(OC)c(CCC2(C3CCCC3)CC(O)=C(Sc3ccc(C(=O)O)cn3)C(=O)O2)cc1Cl (centres unmarked) [Example 94, 6-({6-[2-(5-chloro-2,4-dimethoxyphenyl)ethyl]-6-cyclopentyl-4-hydroxy-2-oxo-5,6-dihydro-2H-pyran-3-yl}thio)nicotinic acid], which IC50 is on record?
A: < 1 µM

Q: For O=C1CC(=O)OC(CCc2ccc(C3OCCO3)c(F)c2)(C2CCCC2)C1 (centres unmarked) [Example 78, 6-Cyclopentyl-6-[2-(4-[1,3]dioxolan-2-yl-3-fluoro-phenyl)-ethyl]-dihydro-pyran-2,4-dione], which IC50 is on record?
A: 1 to 10 µM

Q: For Cc1cc(SC2=C(O)CC(CCC3CCCC3)(C3CCCC3)OC2=O)c(C(C)(C)C)cc1CO (centres unmarked) [Example 145, 3-(2-tert-butyl-4-hydroxymethyl-5-methyl-phenylsulfanyl)-6-cyclopentyl-6-(2-cyclopentyl-ethyl)-4-hydroxy-5,6-dihydro-pyran-2-one], which IC50 is on record?
A: 10 to 50 µM

Q: CC(C)c1ccc(CCC2(C3CCCC3)CC(=O)CC(=O)O2)cc1 (centres unmarked) [Example 40, 6-Cyclopentyl-6-[2-(4-isopropyl-phenyl)-ethyl]-dihydro-pyran-2,4-dione] was tested. Which IC50 did it give?
A: 1 to 10 µM

Q: Cc1cc(SC2=C(O)CC(CCc3ccc(O)cc3)(C3CCCCC3)OC2=O)c(C(C)(C)C)cc1OS(=O)(=O)c1ccccc1 (centres unmarked) [Example 135, Benzenesulfonic acid 5-tert-butyl-4-{6-cyclohexyl-4-hydroxy-6-[2-(4-hydroxy-phenyl)-ethyl]-2-oxo-5,6-dihydro-2H-pyran-3-ylsulfanyl}-2-methyl-phenyl ester] was tested. Which IC50 did it give?
A: 10 to 50 µM

Q: COc1ccc(CCC2(C3CCCC3)CC(=O)C(C(=O)Cc3cccnc3)C(=O)O2)c(OC)c1 (centres unmarked) [Example 172, 6-Cyclopentyl-6-[2-(2,4-dimethoxy-phenyl)-ethyl]-3-(2-pyridin-3-yl-acetyl)-dihydro-pyran-2,4-dione] was tested. Which IC50 did it give?
A: 1 to 10 µM
